Results as given in US12679878B2, “CRF2 receptor agonists and their use in therapy” (SANOFI, priority 2020, dated 2026).
Values after ≈ are worked out from the molar mass of the structure shown. Starred links: 1 amine or outer side, 2 acyl side, 3 side chain; linkers in the order of their positions; H or OH if unused. Non-standard residues stand in square brackets, D forms with d. Residues, ends and D or L forms follow the SMILES beside them. Groups on a side chain read outwards from the residue. *: point of attachment. γGlu = O=C(O)[C@H](CCC(=O)[*:2])N[*:1]; Palmitoyl = CCCCCCCCCCCCCCCC(=O)*; Aib = CC(C)(N)C(=O)O

Experiments:
[1] = Solubility in buffer systems by UPLC-UV (Example 13); assay type: physicochemical
Description: Prior to performing the solubility measurements, the purity of the compounds was determined through UPLC/MS. […] Therefore, solutions from solid samples were prepared in a buffer system with a concentration of 10 mg/mL compound based on the previously determined % purity.
UPLC-UV was performed after 1 hour of gentle agitation from the supernatant, which was obtained after 15 minutes of centrifugation at 2500 RCF (relative centrifugal acceleration). The solubility was determined by the comparison of the UV peak area of a 2 μL-injection of a buffered sample diluted 1:10 with a standard curve of a reference compound with known concentration. The different UV extinction coefficients of sample and reference compound were calculated based on the different amino acid sequences and considered in the concentration calculation.

CRF1R receptor = target: T1, CRF1R receptor (Homo sapiens, UniProt P34998); experiment: cAMP activity at anti-target CRF1R, CRF1R-overexpression CHO cell line (Example 9); assay type: cell-based; conditions: CRF1R-overexpression CHO cell line; for EC50: 0% HSA; for Emax: read-out: Emax (%)
T1 construct: host or cells: CHO-K1 clone 2
T1 sequence (P34998 24-415): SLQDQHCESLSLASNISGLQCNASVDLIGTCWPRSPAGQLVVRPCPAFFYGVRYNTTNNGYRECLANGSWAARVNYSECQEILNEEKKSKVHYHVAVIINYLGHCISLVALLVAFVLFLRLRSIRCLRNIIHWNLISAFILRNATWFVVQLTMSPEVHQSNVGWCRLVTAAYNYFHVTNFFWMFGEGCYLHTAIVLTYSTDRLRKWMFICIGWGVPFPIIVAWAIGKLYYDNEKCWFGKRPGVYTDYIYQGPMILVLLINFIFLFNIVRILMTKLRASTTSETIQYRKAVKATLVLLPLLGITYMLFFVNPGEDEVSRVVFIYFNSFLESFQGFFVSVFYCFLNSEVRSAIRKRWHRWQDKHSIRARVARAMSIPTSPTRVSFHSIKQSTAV
Procedure, shortened: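 Using thawed CRF1R-overexpressing CHO cells at 2000 per well, compound is applied for 30 min at RT in HBSS/HEPES buffer with IBMX. Cellular cAMP content is determined via HTRF, and percent activity is calculated against 1000 nM UCN2 defined as 100%.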

human CRF2α receptor = target: T2, human CRF2α receptor (Homo sapiens, UniProt Q13324); experiment: cAMP agonism at human CRF2 α receptor in TeloHEAC cells (Example 7); assay type: cell-based; conditions: cAMP HTRF, TeloHEAC cells stably expressing human CRF2 α, 0% HSA; read-out: EC50 [nM], 0% HSA
T2 construct: expressed in transfected cells; host or cells: TeloHEAC
T2 sequence (Q13324 1-411): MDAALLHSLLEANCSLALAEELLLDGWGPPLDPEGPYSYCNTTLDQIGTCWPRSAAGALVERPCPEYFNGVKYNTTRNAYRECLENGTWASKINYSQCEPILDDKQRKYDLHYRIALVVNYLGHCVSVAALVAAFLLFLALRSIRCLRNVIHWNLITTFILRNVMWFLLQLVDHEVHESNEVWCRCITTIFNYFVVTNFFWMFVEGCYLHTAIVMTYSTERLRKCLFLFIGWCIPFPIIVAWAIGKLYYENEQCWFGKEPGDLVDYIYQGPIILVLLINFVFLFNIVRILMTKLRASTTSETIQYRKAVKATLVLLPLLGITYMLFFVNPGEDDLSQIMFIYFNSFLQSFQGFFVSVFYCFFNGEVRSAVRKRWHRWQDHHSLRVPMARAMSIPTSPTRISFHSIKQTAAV
Procedure, shortened: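 HTRF ratio 665/620 nm, read 1 h after lysis reagents, reports cAMP. Cells: thawed stocks, 2000/well, 30 min RT with compound in HBSS, 20 mM HEPES, 0 or 0.1% HSA, 2 mM IBMX. Activity normalised to UCN2 1000 nM = 100%; EC50 from half-maximal activation.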

[2] = pH 7.4, Solubility in Buffer C [mg/ml]
[3] = pH 4.5, Solubility in Buffer A [mg/ml]
[4] = pH 4.5, Solubility in Buffer B [mg/ml]

Row | Structure (SMILES) | solubility at 1 h [1, 2] | EC50 (CRF1R receptor) | Emax (CRF1R receptor) | EC50 (human CRF2α receptor) | solubility at 1 h [1, 3] | solubility at 1 h [1, 4]
1 | CCCCCCCCCCCCCCCC(=O)N[C@@H](CCC(=O)NCCCC[C@H](NC(=O)[C@@H](NC(=O)[C@H](CCCCN)NC(=O)[C@@H](NC(=O)[C@@H]1CCCN1C(=O)[C@@H](NC(=O)[C@H](CC(=O)O)NC(=O)[C@H](CC(C)C)NC(=O)[C@H](CO)NC(=O)[C@H](CC(C)C)NC(=O)[C@@H](NC(=O)[C@@H](N)Cc1ccccc1)[C@@H](C)O)C(C)C)[C@@H](C)O)[C@@H](C)CC)C(=O)N[C@@H](CCC(N)=O)C(=O)N[C@@H](CCCCN)C(=O)N[C@@H](CC(C)C)C(=O)N[C@@H](CC(C)C)C(=O)N[C@@H](CCCCN)C(=O)N[C@@H](CCC(N)=O)C(=O)N[C@@H](CCC(=O)O)C(=O)N[C@@H](CCCCN)C(=O)N[C@@H](CCC(N)=O)C(=O)N[C@@H](CCCCN)C(=O)N[C@@H](CCCCN)C(=O)N[C@@H](CCC(N)=O)C(=O)N[C@@H](CCCNC(=N)N)C(=O)N[C@@H](CCC(N)=O)C(=O)N[C@@H](CCCCN)C(=O)N[C@@H](C)C(=O)N[C@@H](CCCCN)C(=O)N[C@H](C(=O)N[C@@H](CC(N)=O)C(=O)N[C@@H](CCCCN)C(=O)N[C@@H](CCC(N)=O)C(=O)N[C@H](C(=O)N[C@@H](CC(C)C)C(=O)N[C@@H](CCC(=O)O)C(=O)N[C@@H](CCC(N)=O)C(=O)N[C@H](C(N)=O)C(C)C)[C@@H](C)CC)[C@@H](C)O)C(=O)O [compound 10] (H-FTLSLDVPTKIK([γGlu-Palmitoyl])QKLLKQEKQKKQRQKAKTNKQILEQV-NH2) | > 10000 µg/mL | > 1000 nM | 10.2% |  |  | 
2 | CCCCCCCCCCCCCCCC(=O)N[C@@H](CCC(=O)NCCCC[C@H](NC(=O)[C@@H](NC(=O)[C@H](CCCCN)NC(=O)[C@@H](NC(=O)[C@@H]1CCCN1C(=O)[C@@H](NC(=O)[C@H](CC(=O)O)NC(=O)[C@H](CC(C)C)NC(=O)[C@H](CO)NC(=O)[C@H](CC(C)C)NC(=O)[C@@H](NC(=O)[C@@H](N)Cc1ccccc1)[C@@H](C)O)C(C)C)[C@@H](C)O)[C@@H](C)CC)C(=O)N[C@@H](CCC(N)=O)C(=O)N[C@@H](CCCCN)C(=O)N[C@@H](CC(C)C)C(=O)N[C@@H](CC(C)C)C(=O)N[C@@H](CCCCN)C(=O)N[C@@H](CCC(N)=O)C(=O)N[C@@H](CCC(=O)O)C(=O)N[C@@H](CCCCN)C(=O)N[C@@H](CCC(N)=O)C(=O)N[C@@H](CCCNC(=N)N)C(=O)N[C@@H](CCCCN)C(=O)N[C@@H](CCC(N)=O)C(=O)N[C@@H](CCCCN)C(=O)N[C@@H](CCC(N)=O)C(=O)N[C@@H](CCCCN)C(=O)N[C@@H](C)C(=O)N[C@@H](CCCCN)C(=O)N[C@H](C(=O)N[C@@H](CC(N)=O)C(=O)N[C@@H](C)C(=O)N[C@@H](CCCCN)C(=O)N[C@H](C(=O)N[C@@H](CC(C)C)C(=O)N[C@@H](C)C(=O)N[C@@H](CCCNC(=N)N)C(=O)N[C@H](C(N)=O)C(C)C)[C@@H](C)CC)[C@@H](C)O)C(=O)O [compound 14] (H-FTLSLDVPTKIK([γGlu-Palmitoyl])QKLLKQEKQRKQKQKAKTNAKILARV-NH2; N-terminus assumed) | > 8700 µg/mL | > 1000 nM | 14.1% | 0.18 nM | > 9100 µg/mL | 
3 | CCCCCCCCCCCCCCCC(=O)N[C@@H](CCC(=O)NCCCC[C@H](NC(=O)[C@H](CC(C)C)NC(=O)[C@H](CCCCN)NC(=O)[C@@H](NC(=O)[C@@H]1CCCN1C(=O)[C@H](NC(=O)[C@H](CC(=O)O)NC(=O)[C@H](CC(C)C)NC(=O)[C@H](CO)NC(=O)[C@H](CC(C)C)NC(=O)[C@@H](NC(=O)[C@@H](N)[C@@H](C)CC)C(C)C)C(C)C)[C@@H](C)O)C(=O)N[C@@H](CCC(N)=O)C(=O)N[C@@H](CCCCN)C(=O)N[C@@H](CC(C)C)C(=O)N[C@@H](CC(C)C)C(=O)N[C@@H](CCCCN)C(=O)N[C@@H](CCC(N)=O)C(=O)N[C@@H](CCC(=O)O)C(=O)N[C@@H](CCCNC(=N)N)C(=O)N[C@@H](CCC(N)=O)C(=O)N[C@@H](CCCNC(=N)N)C(=O)NC(C)(C)C(=O)N[C@@H](CCC(=O)O)C(=O)N[C@@H](CCCNC(=N)N)C(=O)N[C@@H](CCC(=O)O)C(=O)N[C@@H](CCC(N)=O)C(=O)N[C@@H](C)C(=O)N[C@@H](CCC(=O)O)C(=O)N[C@@H](CCCCN)C(=O)N[C@@H](CC(N)=O)C(=O)N[C@@H](CCCCN)C(=O)N[C@@H](CCCNC(=N)N)C(=O)N[C@H](C(=O)N[C@@H](CC(C)C)C(=O)N[C@@H](CCC(=O)O)C(=O)N[C@@H](CCCNC(=N)N)C(=O)N[C@H](C(N)=O)C(C)C)[C@@H](C)CC)C(=O)O [compound 19] (H-IVLSLD[dV]PTKLK([γGlu-Palmitoyl])QKLLKQERQR[Aib]EREQAEKNKRILERV-NH2; N-terminus assumed) | 5700 µg/mL (≈ 1150 µM) |  | 57.4% | 0.01 nM | > 10200 µg/mL | > 10800 µg/mL
4 | CCCCCCCCCCCCCCCC(=O)N[C@@H](CCC(=O)NCCCC[C@H](NC(=O)[C@H](CC(C)C)NC(=O)[C@H](CCCCN)NC(=O)[C@@H](NC(=O)[C@@H]1CCCN1C(=O)[C@H](NC(=O)[C@H](CC(=O)O)NC(=O)[C@H](CC(C)C)NC(=O)[C@H](CO)NC(=O)[C@H](CC(C)C)NC(=O)[C@@H](NC(=O)[C@@H](N)[C@@H](C)CC)C(C)C)C(C)C)[C@@H](C)O)C(=O)N[C@@H](CCC(N)=O)C(=O)N[C@@H](CCCCN)C(=O)N[C@@H](CC(C)C)C(=O)N[C@@H](CC(C)C)C(=O)N[C@@H](CCCCN)C(=O)N[C@@H](CCC(N)=O)C(=O)N[C@@H](CCC(=O)O)C(=O)N[C@@H](CCCNC(=N)N)C(=O)N[C@@H](CCC(N)=O)C(=O)N[C@@H](CCCNC(=N)N)C(=O)N[C@@H](CCCCN)C(=O)NC(C)(C)C(=O)N[C@@H](CCCNC(=N)N)C(=O)N[C@@H](CCC(=O)O)C(=O)N[C@@H](CCC(N)=O)C(=O)N[C@@H](C)C(=O)N[C@@H](CCC(=O)O)C(=O)N[C@@H](CCCCN)C(=O)N[C@@H](CC(N)=O)C(=O)N[C@@H](CCCCN)C(=O)N[C@@H](CCCNC(=N)N)C(=O)N[C@H](C(=O)N[C@@H](CC(C)C)C(=O)N[C@@H](CCC(=O)O)C(=O)N[C@@H](CCCNC(=N)N)C(=O)N[C@H](C(N)=O)C(C)C)[C@@H](C)CC)C(=O)O [compound 20] (H-IVLSLD[dV]PTKLK([γGlu-Palmitoyl])QKLLKQERQRK[Aib]REQAEKNKRILERV-NH2; N-terminus assumed) | 6800 µg/mL (≈ 1370 µM) |  |  | 0.01 nM | > 9500 µg/mL | > 9100 µg/mL
5 | CCCCCCCCCCCCCCCC(=O)N[C@@H](CCC(=O)NCCCC[C@H](NC(=O)[C@H](CC(C)C)NC(=O)[C@H](CCCCN)NC(=O)[C@@H](NC(=O)[C@@H]1CCCN1C(=O)[C@H](NC(=O)[C@H](CC(=O)O)NC(=O)[C@H](CC(C)C)NC(=O)[C@H](CO)NC(=O)[C@H](CC(C)C)NC(=O)[C@@H](NC(=O)[C@@H](N)[C@@H](C)CC)C(C)C)C(C)C)[C@@H](C)O)C(=O)N[C@@H](CCC(N)=O)C(=O)N[C@@H](CCCCN)C(=O)N[C@@H](CC(C)C)C(=O)N[C@@H](CC(C)C)C(=O)N[C@@H](CCCCN)C(=O)N[C@@H](CCC(N)=O)C(=O)N[C@@H](CCC(=O)O)C(=O)N[C@@H](CCCNC(=N)N)C(=O)N[C@@H](CCC(N)=O)C(=O)N[C@@H](CCCNC(=N)N)C(=O)N[C@@H](CCCCN)C(=O)N[C@@H](CCC(=O)O)C(=O)N[C@@H](CCCNC(=N)N)C(=O)NC(C)(C)C(=O)N[C@@H](CCC(N)=O)C(=O)N[C@@H](C)C(=O)N[C@@H](CCC(=O)O)C(=O)N[C@@H](CCCCN)C(=O)N[C@@H](CC(N)=O)C(=O)N[C@@H](CCCCN)C(=O)N[C@@H](CCCNC(=N)N)C(=O)N[C@H](C(=O)N[C@@H](CC(C)C)C(=O)N[C@@H](CCC(=O)O)C(=O)N[C@@H](CCCNC(=N)N)C(=O)N[C@H](C(N)=O)C(C)C)[C@@H](C)CC)C(=O)O [compound 23] (H-IVLSLD[dV]PTKLK([γGlu-Palmitoyl])QKLLKQERQRKER[Aib]QAEKNKRILERV-NH2; N-terminus assumed) | 9100 µg/mL (≈ 1830 µM) |  |  | 0.02 nM |  | 
